Test results taken from US20110098325A1, “PYRIDINE BENZAMIDES AND PYRAZINE BENZAMIDES USED AS PKD INHIBITORS” (CANCER RESEARCH TECHNOLOGY LIMITED, priority 2006, published 2011).
“And” between values parts separate entries of the source, which are not always exact repeats. Identical values can stand only once.

biological target: T1, Murine PKD1 kinase domain (Mus musculus, UniProt Q62101); test: PKD1 (Murine Kinase Domain) Enzyme Activity Assay (IMAP fluorescence polarisation); assay type: biochemical; conditions: 10 μM ATP, 60 minutes, room temperature
T1 construct: hexahistidine (pFastBac HTb leader) (N); made in house; host or cells: Sf9 insect cells, baculovirus (Bac-to-Bac HT, pFastBac HTb)
T1 sequence (Q62101 with tags, fused parts or gaps R683W): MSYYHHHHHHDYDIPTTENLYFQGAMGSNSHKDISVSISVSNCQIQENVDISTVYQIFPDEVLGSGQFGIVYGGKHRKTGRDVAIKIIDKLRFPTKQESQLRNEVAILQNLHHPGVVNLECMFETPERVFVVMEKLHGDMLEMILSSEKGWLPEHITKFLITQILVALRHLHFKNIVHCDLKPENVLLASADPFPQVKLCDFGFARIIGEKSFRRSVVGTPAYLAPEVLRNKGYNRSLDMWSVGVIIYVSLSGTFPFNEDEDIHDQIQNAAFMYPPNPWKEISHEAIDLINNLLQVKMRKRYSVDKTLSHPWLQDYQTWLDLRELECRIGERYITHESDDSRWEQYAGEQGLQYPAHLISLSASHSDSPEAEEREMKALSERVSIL

| IC50 | SMILES |
| --- | --- |
| < 1000 nM | COc1cc(-c2cncc(-c3cccc(C(=O)NCCN(C)C)c3)n2)ccc1O [X-007, N-(2-Dimethylamino-ethyl)-3-[6-(4-hydroxy-3-methoxy-phenyl)-pyrazin-2-yl]-benzamide] |
| < 1000 nM and 12 nM | COc1cc(-c2nc(-c3cccc(C(=O)NCCN(C)C)c3)cnc2N)ccc1O [X-017, 3-[5-Amino-6-(4-hydroxy-3-methoxy-phenyl)-pyrazin-2-yl]-N-(2-dimethylamino-ethyl)-benzamide] |
| < 1000 nM and 8.5 nM | COc1cc(-c2cc(-c3cccc(C(=O)NCCN(C)C)c3)cnc2N)ccc1O [Y-059, 3-[6-Amino-5-(4-hydroxy-3-methoxy-phenyl)-pyridin-3-yl]-N-(2-dimethylamino-ethyl)-benzamide] |
